Assay results: patent US7649012B2, “Compounds, pharmaceutical compositions containing same, and methods of use for same” (FASgen, Inc., priority 2002, dated 2010)
≈ marks a conversion by molar mass, not a printed value. Read-outs that look alike come from different tables or passages of the source.

Assays:
Type in all cases: cell-based
[1] = system: Escherichia coli (ATCC # 25922); assay: Broth microdilution MIC; settings: for MIC: Escherichia coli, ATCC25922
Description: (§1) A broth microdilution assay is used to assess the antimicrobial activity of the compounds. […] Microorganisms tested include Staphylococcus aureus (ATCC # 29213), Enterococcus faecalis (ATCC # 29212), Pseudomonas aeruginosa (ATCC # 27853), and Escherichia coli (ATCC # 25922). The assay is performed in two growth media, Mueller Hinton Broth and Trypticase Soy Broth. […] Colonies are suspended in sterile broth so that the turbidity matches the turbidity of a 0.5 McFarland standard. The inoculum is diluted 1:10 in sterile broth (Mueller Hinton or Trypticase soy) and 195 ul is dispensed per well of a 96-well plate. The compounds to be tested, dissolved in DMSO, are added to the wells in 5 ul volume at the following concentrations: 25, 12.5, 6.25, 3.125, 1.56 and 0.78 ug/ml in duplicate. Additional concentrations are tested if required. 5 ul of DMSO added to duplicate wells are the vehicle control. Serial dilutions of positive control compounds, vancomycin (E. faecalis and S. aureus) and tobramycin (E. coli and P. aeruginosa), are included in each run. After 24 hours of incubation at 37° C., plates are read at OD600 on a Molecular Devices SpectraMax Plus Spectrophotometer. Average OD600 values are computed using SOFTmax Pro Software (Molecular Devices) and MIC values are determined by linear regression analysis using Prism version 3.02 (Graph Pad Software, San Diego).

[2] = system: Enterococcus faecalis (ATCC # 29212); assay: Broth microdilution MIC; settings: for MIC: Enterococcus faecalis, ATCC29212
Description: as §1

[3] = system: Staphylococcus aureus (ATCC # 29213); assay: Broth microdilution MIC; settings: for MIC: Staphylococcus aureus, ATCC29213
Description: as §1

[4] = system: Pseudomonas aeruginosa (ATCC # 27853); assay: Broth microdilution MIC; settings: for PSAE/MH(MIC): Mueller Hinton Broth; for PSAE/Tsoy(MIC): Trypticase Soy Broth
Description: as §1

[5] = system: MCF-7 human breast cancer cells; assay: [14C]acetate incorporation into total lipids; settings: for 14C(IC50): [14C]acetate incorporation into lipids; for IC50: Homo sapiens, MCF7, [14C]acetate incorporation into lipids
Description: This assay measures the incorporation of [^14C]acetate into total lipids and is a measure of fatty acid synthesis pathway activity in vitro. It is utilized to measure inhibition of fatty acid synthesis in vitro.
MCF-7 human breast cancer cells cultured as above, are plated at 5×10^4 cells per well in 24-well plates. […] DMSO is added to triplicate wells for a vehicle control. C75 is run at 5 and 10 μg/ml in triplicate as positive controls. After 4 hours of incubation, 0.25 μCi of [^14C]acetate (10 μl volume) is added to each well.
After 2 hours of additional incubation, medium is aspirated from the wells and 800 μl of chloroform:methanol (2:1) and 700 μl of 4 mM MgCl2 is added to each well. Contents of each well are transferred to 1.5 Eppendorf tubes, and spun at full-speed for 2 minutes in a high-speed Eppendorf Microcentrifuge 5415D. After removal of the aqueous (upper) layer, an additional 700 μl of chloroform:methanol (2:1) and 500 μl of 4 mM MgCl2 are added to each tube and then centrifuged for 1 minutes as above. The aqueous layer is removed with a Pasteur pipette and discarded. An additional 400 μl of chloroform:methanol (2:1) and 200 μl of 4 mM MgCl2 are added to each tube, then centrifuged and aqueous layer is discarded. The lower (organic) phase is transferred into a scintillation vial and dried at 40° C. under N2 gas. Once dried, 3 ml of scintillant (APB #NBC5104) is added and vials are counted for ^14C. The Beckman Scintillation counter calculates the average cpm values for triplicates.
The IC50 for the compounds is defined as the concentration of drug leading to a 50% reduction in [^14C]acetate incorporation into lipids compared to controls. […] The average cpm values are computed by the Beckman scintillation counter (Model LS6500) for each compound concentration. Computation of linear regression, best-fit line, r^2, and 95% confidence intervals are calculated using Prism Version 3.0 (Graph Pad Software).

[6] = Trypticase Soy Broth, read-out: Ecoli/Tsoy(MIC)
[7] = Mueller Hinton Broth, read-out: EF/MH(MIC)
[8] = Mueller Hinton Broth, read-out: SA/MH(MIC)
[9] = Trypticase Soy Broth, read-out: SA/Tsoy(MIC)
[10] = Trypticase Soy Broth, read-out: EF/Tsoy(MIC)

Row | Structure (SMILES) | MIC [1, 6] | Ecoli/MH(MIC) ([1]; Mueller Hinton Broth) | MIC [2, 7] | EF/Tsoy(MIC) ([2]; Trypticase Soy Broth) | MIC [3, 8] | MIC [3, 9] | PSAE/MH(MIC) [4] | PSAE/Tsoy(MIC) [4] | Ecoli/Tsoy(MIC) ([1]; Trypticase Soy Broth) | MIC [2, 10] | IC50 [5] | SA/MH(MIC) ([3]; Mueller Hinton Broth) | 14C(IC50) [5] | MIC ([1]; Mueller Hinton Broth, read-out: Ecoli/MH(MIC)) | EF/MH(MIC) ([2]; Mueller Hinton Broth)
1 | CC1(Cc2ccccc2)SC(=O)C=C1O (stereo not shown) | 299 µg/mL (≈ 1360 µM) | Neg | 128 µg/mL (≈ 581 µM) | Neg | 57 µg/mL (≈ 259 µM) | 67 µg/mL (≈ 304 µM) | Neg | Neg |  |  |  |  | Neg |  | 
2 | COC1=CC(=O)SC1(C)Cc1ccccc1 (stereo not shown) |  | Neg | 170 µg/mL (≈ 726 µM) |  | 83 µg/mL (≈ 354 µM) | 129 µg/mL (≈ 551 µM) | Neg | Neg | Neg | 189 µg/mL (≈ 807 µM) |  |  |  |  | 
3 | CCCCCCCCC1(C)SC(=O)C(C(C)O)=C1OC (stereo not shown) | 249 µg/mL (≈ 829 µM) | Neg | 77 µg/mL (≈ 256 µM) |  | 53.3 ± 2.1 µg/mL (≈ 177 µM) | 16.2 ± 3.8 µg/mL (≈ 53.9 µM) | Neg | Neg |  | 25 µg/mL (≈ 83.2 µM) | 21.7 µg/mL (≈ 72.2 µM) |  |  |  | 
4 | C#CCOC1CC(=O)S[C@]1(C)CCCCCC (mixture of isomers) |  |  |  |  | 53 µg/mL | 80 µg/mL | Neg | Neg | Neg | 83 µg/mL | 21.9 ± 1.5 µg/mL |  |  | 203 µg/mL | Neg
5 | CCCCCCCC[C@@]1(C)SC(=O)C=C1OCC(=O)OCC (racemic) |  | Neg | 86 µg/mL (≈ 262 µM) | Neg |  | 83 µg/mL (≈ 253 µM) | Neg | Neg | Neg |  | 10.8 ± 5.8 µg/mL (≈ 32.9 µM) | Neg |  |  | 
6 | C=CCNC(=O)COC1=CC(=O)S[C@]1(C)CCCCCCCCCC (racemic) |  |  |  |  | 28 µg/mL (≈ 76.2 µM) | 31 µg/mL (≈ 84.3 µM) | Neg | Neg |  |  |  |  | Neg |  | 
7 | CCCCCCCC[C@@]1(C)SC(=O)C(C(=O)C(F)(F)F)=C1O (racemic) |  |  |  |  | 54 µg/mL (≈ 160 µM) | 65 µg/mL (≈ 192 µM) | Neg | Neg |  |  | 14.7 µg/mL (≈ 43.4 µM) |  |  |  | 

Now from value to compound, other results behind:

Row | MIC [1, 6] | Ecoli/MH(MIC) ([1]; Mueller Hinton Broth) | MIC [2, 7] | EF/Tsoy(MIC) ([2]; Trypticase Soy Broth) | MIC [3, 8] | MIC [3, 9] | PSAE/MH(MIC) [4] | PSAE/Tsoy(MIC) [4] | Ecoli/Tsoy(MIC) ([1]; Trypticase Soy Broth) | MIC [2, 10] | IC50 [5] | SA/MH(MIC) ([3]; Mueller Hinton Broth) | Structure (SMILES) | 14C(IC50) [5] | MIC ([1]; Mueller Hinton Broth, read-out: Ecoli/MH(MIC)) | EF/MH(MIC) ([2]; Mueller Hinton Broth)
8 |  | Neg | 66 µg/mL (≈ 230 µM) |  | 53.1 ± 0.5 µg/mL (≈ 185 µM) | 12 ± 0.5 µg/mL (≈ 41.9 µM) | Neg | Neg | Neg | 21 µg/mL (≈ 73.3 µM) | 17.6 µg/mL (≈ 61.4 µM) |  | CCCCCCCCC1(C)SC(=O)C(C(C)O)=C1O (stereo not shown) |  |  | 
9 |  |  |  |  |  |  |  |  |  |  | 25.7 µg/mL (≈ 72.7 µM) |  | C=CCN(C)C(=O)COC1=CC(=O)SC1(C)CCCCCCCC (stereo not shown) |  |  | 
10 |  | Neg | 133 µg/mL |  |  | 97 µg/mL | Neg | Neg | Neg | 91 µg/mL | 14.9 µg/mL | Neg | C=CCC1(C)C(=O)S[C@](C)(CCCCCCCC)C1=O (mixture of isomers) |  |  | 
11 |  | Neg | 117 µg/mL (≈ 384 µM) |  | 164 µg/mL (≈ 538 µM) | 50 µg/mL (≈ 164 µM) | Neg | Neg | Neg | 165 µg/mL (≈ 541 µM) | 8.6 µg/mL (≈ 28.2 µM) |  | CCCCCC[C@@]1(C)SC(=O)C=C1OCCCCCl (racemic) |  |  | 
12 |  | Neg | 64 µg/mL (≈ 192 µM) | Neg | 115 µg/mL (≈ 345 µM) | 134 µg/mL (≈ 402 µM) | Neg | Neg | Neg |  | 6.8 µg/mL (≈ 20.4 µM) |  | CCCCCCCC[C@@]1(C)SC(=O)C=C1OCCCCCl (racemic) |  |  | 
13 | 281 µg/mL (≈ 935 µM) | Neg | 21.3 µg/mL (≈ 70.9 µM) | Neg |  | 129 µg/mL (≈ 429 µM) | Neg | Neg |  |  | 14.2 ± 0.2 µg/mL (≈ 47.3 µM) | Neg | CCCCCC[C@@]1(C)SC(=O)C=C1OCC(=O)OCC (racemic) |  |  | 
